Measurements taken from ChEMBL document CHEMBL1143406 (Antimicrob Agents Chemother, 2007).

What was measured:
Assay type in all cases: ADME, organism-based
[1] = Cmax in HIV-negative human at 600 mg, po administered every 24 hrs coadministered with 400 mg of atazanavir every 12 hrs; design: dose 600 mg, route oral; details: in vivo
[2] = Apparent oral clearance in HIV-negative human at 600 mg, po administered every 24 hrs coadministered with 300 mg of atazanavir every 12 hrs; details: in vivo
[3] = AUC (24 hrs) in HIV-negative human at 600 mg, po administered every 24 hrs coadministered with 400 mg of atazanavir every 12 hrs; design: time < 24 hr, dose 600 mg, route oral; details: plasma
Homo sapiens [4] = assay: Terminal apparent distribution volume in HIV-negative human at 600 mg, po administered every 24 hrs coadministered with 300 mg of atazanavir every 12 hrs; details: in vivo
[5] = Tmax in HIV-negative human at 600 mg, po administered every 24 hrs coadministered with 400 mg of atazanavir every 12 hrs; details: in vivo
[6] = Tmax in HIV-negative human at 600 mg, po administered every 24 hrs coadministered with 300 mg of atazanavir every 12 hrs; details: in vivo
Homo sapiens [7] = assay: Terminal apparent distribution volume in HIV-negative human at 600 mg, po administered every 24 hrs coadministered with 400 mg of atazanavir every 12 hrs; details: in vivo
[8] = Apparent oral clearance in HIV-negative human at 600 mg, po administered every 24 hrs coadministered with 400 mg of atazanavir every 12 hrs; details: in vivo
[9] = AUC (24 hrs) in HIV-negative human at 600 mg, po administered every 24 hrs coadministered with 300 mg of atazanavir every 12 hrs; design: dose 600 mg, time < 24 hr, route oral; details: plasma
[10] = Cmax in HIV-negative human at 600 mg, po administered every 24 hrs coadministered with 300 mg of atazanavir every 12 hrs; design: dose 600 mg, route oral; details: in vivo

## CO[C@H]1/C=C/O[C@@]2(C)Oc3c(C)c(O)c4c(O)c(c(/C=N/N5CCN(C)CC5)c(O)c4c3C2=O)NC(=O)/C(C)=C\C=C\[C@H](C)[C@H](O)[C@@H](C)[C@@H](O)[C@@H](C)[C@H](OC(C)=O)[C@@H]1C [RIFAMPIN]
[1]
  Cmax: 10100 ng/mL
[2]
  CL/F: 252 mL/min
[3]
  AUC at 24 h: 41700 ng·h/mL
Homo sapiens [4]
  Vbeta: 32 L
[5]
  Tmax: 2.7 h
[6]
  Tmax: 2.7 h
Homo sapiens [7]
  Vbeta: 33 L
[8]
  CL/F: 275 mL/min
[9]
  AUC at 24 h: 45700 ng·h/mL
[10]
  Cmax: 9490 ng/mL
